Measurements: patent publication US10537558B2 (Bantam Pharmaceutical, LLC, priority 2015, dated 2020)

system: BJAB cells; assay: BJAB cell proliferation (Cell Titer Glo); assay type: cell-based; details: Homo sapiens, read-out: EC50
Description: Cells were seeded in white Corning Costar 96-well assay plates at 2500 cells/well in 50 μL of medium. Serial dilutions of test compounds were made in cell culture medium/FBS+0.2% DMSO, and transferred to assay plates in a volume of 50 μL (DMSO at 0.1% final). Plates were maintained at 37° C. for approximately 72 hours. The effect of compounds on cell proliferation was evaluated using the Cell Titer Glo reagent (Promega), according to the manufacturer's instructions. Briefly, 100 μL of reagent was added per well, and after a 10 minute incubation luminescence values were determined on a plate reader (Tecan F200PRO). The percent of luminescence signal relative to untreated controls was calculated for each compound concentration, and EC50 values were determined from dose response data by non-linear regression analysis using Prism (GraphPad). The mTor inhibitor Torin1 (Liu, et al. (2010) J. Med. Chem. 53, 7146.) was used as a control. The data are summarized in the compound table provided above.

Row | Compound | EC50 [µM]
1 | Cc1nn(-c2nc(-c3ccc(Cl)c(Cl)c3)c(SC(C)C)s2)c(C(=O)O)c1-c1cnn2ccccc12 [Compound 64, 1-(4-(3,4-dichlorophenyl)-5-(isopropylthio)thiazol-2-yl)-3-methyl-4-(pyrazolo[1,5-a]pyridin-3-yl)-1H-pyrazole-5-carboxylic acid] | 10 to 25
2 | COc1cncc(-c2c(C)nn(-c3nc(-c4ccc(Cl)c(Cl)c4)c(SC(C)C)s3)c2C(=O)O)c1 [Compound 132, 1-(4-(3,4-dichlorophenyl)-5-(isopropylthio)thiazol-2-yl)-4-(5-methoxypyridin-3-yl)-3-methyl-1H-pyrazole-5-carboxylic acid] | 10 to 25
3 | Cc1cc(F)cc(-c2c(C)nn(-c3nc(-c4ccc(Cl)c(Cl)c4)c(SC(C)C)s3)c2C(=O)O)c1 [Compound 95, 1-(4-(3,4-dichlorophenyl)-5-(isopropylthio)thiazol-2-yl)-4-(3-fluoro-5-methylphenyl)-3-methyl-1H-pyrazole-5-carboxylic Acid] | 1 to 5
4 | Cc1nn(-c2nc(-c3ccc(Cl)c(Cl)c3)c(SC(C)C)s2)c(C(=O)O)c1-c1ccc2cc[nH]c2c1 [Compound 107, 1-(4-(3,4-dichlorophenyl)-5-(isopropylthio)thiazol-2-yl)-4-(1H-indol-6-yl)-3-methyl-1H-pyrazole-5-carboxylic acid] | 25 to 50
5 | CCC(C)Sc1sc(-n2nc(C)c(-c3cc(C)nc(C)c3)c2C(=O)O)nc1-c1ccc(Cl)c(Cl)c1 (centres unmarked) [Compound 33b] | < 1
6 | Cc1cc(-c2c(C)nn(-c3nc(-c4cc(Cl)ccc4Cl)c(SC(C)C)s3)c2C(=O)O)cc(C)n1 [Compound 161, 1-(4-(2,5-dichlorophenyl)-5-(isopropylthio)thiazol-2-yl)-4-(2,6-dimethylpyridin-4-yl)-3-methyl-1H-pyrazole-5-carboxylic acid] | 5 to 10
7 | Cc1cc(Cl)cc(C)c1-c1nc(-n2nc(C)c(-c3cccc(F)c3)c2C(=O)O)sc1SC(C)C [Compound 239, 1-(4-(4-chloro-2,6-dimethylphenyl)-5-(isopropylthio)thiazol-2-yl)-4-(3-fluorophenyl)-3-methyl-1H-pyrazole-5-carboxylic Acid] | 5 to 10
8 | Cc1cc(OC2COC2)cc(-c2c(C)nn(-c3nc(-c4ccc(Cl)c(Cl)c4)c(SC(C)C)s3)c2C(=O)O)c1 [Compound 98, 1-(4-(3,4-dichlorophenyl)-5-(isopropylthio)thiazol-2-yl)-3-methyl-4-(3-methyl-5-(oxetan-3-yloxy)phenyl)-1H-pyrazole-5-carboxylic Acid] | 1 to 5
9 | COc1ccc(C)cc1-c1c(C)nn(-c2nc(-c3ccc(Cl)c(Cl)c3)c(SC(C)C)s2)c1C(=O)O [Compound 62, 1-(4-(3,4-dichlorophenyl)-5-(isopropylthio)thiazol-2-yl)-4-(2-methoxy-5-methylphenyl)-3-methyl-1H-pyrazole-5-carboxylic acid] | 5 to 10
10 | Cc1cc(C#N)cc(-c2c(C)nn(-c3nc(-c4ccc(Cl)c(Cl)c4)c(SC(C)C)s3)c2C(=O)O)c1 [Compound 80, 4-(3-cyano-5-methylphenyl)-1-(4-(3,4-dichlorophenyl)-5-(isopropylthio)thiazol-2-yl)-3-methyl-1H-pyrazole-5-carboxylic Acid] | 1 to 5
11 | Cc1nn(-c2nc(-c3ccc(Cl)c(Cl)c3)c(SC(C)C)s2)c(C(=O)O)c1-c1c(Cc2ccccc2)noc1C [Compound 86, 4-(3-benzyl-5-methylisoxazol-4-yl)-1-(4-(3,4-dichlorophenyl)-5-(isopropylthio)thiazol-2-yl)-3-methyl-1H-pyrazole-5-carboxylic Acid] | 1 to 5
12 | Cc1nn(-c2nc(-c3ccc(Cl)c(Cl)c3)c(SC(C)C)s2)c(C(=O)O)c1C1CC1 [Compound 173, 4-cyclopropyl-1-(4-(3,4-dichlorophenyl)-5-(isopropylthio)thiazol-2-yl)-3-methyl-1H-pyrazole-5-carboxylic Acid] | 10 to 25
13 | COCCNC(=O)c1c(-c2cccc(F)c2)c(C)nn1-c1nc(-c2ccc(C(F)(F)F)cc2)c(SC(C)C)s1 [Compound 250, 4-(3-fluorophenyl)-1-(5-(isopropylthio)-4-(4-(trifluoromethyl)phenyl)thiazol-2-yl)-N-(2-methoxyethyl)-3-methyl-1H-pyrazole-5-carboxamide] | 10 to 25
14 | Cc1nn(-c2nc(-c3ccc4[nH]ccc4c3)c(SC(C)C)s2)c(C(=O)O)c1-c1cccc(F)c1 [Compound 170, 1-(4-(1H-indol-5-yl)-5-(isopropylthio)thiazol-2-yl)-4-(3-fluorophenyl)-3-methyl-1H-pyrazole-5-carboxylic acid] | > 25
15 | Cc1nn(-c2nc(-c3ccc(Cl)c(Cl)c3)c(SC(C)C)s2)c(C(N)=O)c1-c1cc(C(F)(F)F)cc(C(F)(F)F)c1 [Compound 73, 4-(3,5-bis(trifluoromethyl)phenyl)-1-(4-(3,4-dichlorophenyl)-5-(isopropylthio)thiazol-2-yl)-3-methyl-1H-pyrazole-5-carboxamide] | > 40
16 | Cc1nn(-c2nc(-c3cc4ccccc4o3)c(SC(C)C)s2)c(C(=O)O)c1-c1cccc(F)c1 [Compound 201b] | 10 to 25
17 | COc1cc(-c2c(C)nn(-c3nc(-c4ccc(Cl)c(Cl)c4)c(SC(C)C)s3)c2C(=O)O)ccn1 [Compound 166, 1-(4-(3,4-dichlorophenyl)-5-(isopropylthio)thiazol-2-yl)-4-(2-methoxypyridin-4-yl)-3-methyl-1H-pyrazole-5-carboxylic acid] | 5 to 10
18 | Cc1nn(-c2nc(-c3ccc(Cl)c(Cl)c3)c(SC(C)C)s2)c(C(=O)O)c1-c1cc(F)cc(F)c1 [Compound 24, 1-(4-(3,4-dichlorophenyl)-5-(isopropylthio)thiazol-2-yl)-4-(3,5-difluorophenyl)-3-methyl-1H-pyrazole-5-carboxylic Acid] | 1 to 5
19 | Cc1nn(-c2nc(-c3cc(OC(F)(F)F)ccc3Cl)c(SC(C)C)s2)c(C(=O)O)c1-c1cccc(F)c1 [Compound 209, 1-(4-(2-chloro-5-(trifluoromethoxy)phenyl)-5-(isopropylthio)thiazol-2-yl)-4-(3-fluorophenyl)-3-methyl-1H-pyrazole-5-carboxylic acid] | 10 to 25
20 | Cc1nn(-c2nc(-c3ccc(Cl)c(Cl)c3)c(SC(C)C)s2)c(C(=O)O)c1-c1ccccc1 [Compound 18, 1-(4-(3,4-dichlorophenyl)-5-(isopropylthio)thiazol-2-yl)-3-methyl-4-phenyl-1H-pyrazole-5-carboxylic Acid] | 1 to 5
21 | Cc1cc(Cl)ccc1-c1nc(-n2nc(C)c(-c3cccc(F)c3)c2C(=O)O)sc1SC(C)C [Compound 216, 1-(4-(4-chloro-2-methylphenyl)-5-(isopropylthio)thiazol-2-yl)-4-(3-fluorophenyl)-3-methyl-1H-pyrazole-5-carboxylic acid] | < 1
22 | COCCn1cc(-c2c(C)nn(-c3nc(-c4ccc(Cl)c(Cl)c4)c(SC(C)C)s3)c2C(=O)O)cn1 [Compound 126, 2-(4-(3,4-dichlorophenyl)-5-(isopropylthio)thiazol-2-yl)-2′-(2-methoxyethyl)-5-methyl-4,4′-bi(2H-pyrazole)-3-carboxylic acid] | 10 to 25
23 | Cc1nn(-c2nc(-c3ccc(Cl)c(Cl)c3)c(SC(C)C)s2)c(C(=O)O)c1-c1cccc(CN(C)C)c1 [Compound 87, 1-(4-(3,4-dichlorophenyl)-5-(isopropylthio)thiazol-2-yl)-4-(3-((dimethylamino)methyl)phenyl)-3-methyl-1H-pyrazole-5-carboxylic acid] | > 25
